± gives the expanded uncertainty stated by the source.
Key:
[1] = xn = mol fraction of the nth substance listed; conditions: for surface tension liquid-gas: Ring tensiometer; for viscosity / speed of sound / mass density: 101 kPa, Liquid; for viscosity: Capillary tube (Ostwald / Ubbelohde) method; for speed of sound: Sing-around technique in a fixed-path interferometer; for mass density: Vibrating tube method
[2] = refractive index (Na D-line) (dimensionless); xn = mol fraction of the nth substance listed; conditions: 101 kPa, Liquid, Standard Abbe refractometry

CC(O)CNCC(C)O (stereo not given) [N-(2-hydroxypropyl)-2-hydroxy-1-propanamine] + CN1CCCC1=O
Conditions | mass density, [1] [kg/m3] | refractive index, [2] | speed of sound, [1] [m/s] | surface tension liquid-gas, [1] [mN/m] | viscosity, [1] [mPa·s]
293.15 K, x2 = 0.7804 | 1021.9 ± 0.5 | 1.4675 ± 0.0006 | 1535.6 ± 3 | 39.7 ± 0.6 | 4.857 ± 0.058
293.15 K, x2 = 0.8882 | 1026.8 ± 0.5 | 1.4682 ± 0.0006 | 1548.8 ± 2.9 | 41.3 ± 0.6 | 2.943 ± 0.039
303.15 K, x2 = 0.4695 | 1006 ± 0.6 | 1.4608 ± 0.0006 | 1483.8 ± 3.1 | 37.1 ± 0.6 | 20.25 ± 0.3
303.15 K, x2 = 0.5721 | 1007.3 ± 0.6 | 1.4616 ± 0.0006 | 1486.6 ± 3.1 | 37.6 ± 0.6 | 10.57 ± 0.18
303.15 K, x2 = 0.6754 | 1010.8 ± 0.5 | 1.4623 ± 0.0006 | 1494.7 ± 3 | 38.3 ± 0.6 | 6.229 ± 0.092
303.15 K, x2 = 0.7804 | 1013.4 ± 0.5 | 1.4635 ± 0.0006 | 1499.4 ± 3 | 39 ± 0.6 | 3.694 ± 0.049
303.15 K, x2 = 0.8882 | 1018.2 ± 0.5 | 1.4648 ± 0.0006 | 1511.9 ± 2.9 | 40 ± 0.6 | 2.371 ± 0.028
313.15 K, x2 = 0.2764 | 993.1 ± 0.7 | 1.4558 ± 0.0006 | 1443.5 ± 3.2 | 36 ± 0.6 | 38.27 ± 0.59
313.15 K, x2 = 0.3733 | 994.5 ± 0.7 | 1.4563 ± 0.0006 | 1445 ± 3.2 | 36.2 ± 0.6 | 21.14 ± 0.37
313.15 K, x2 = 0.4695 | 997.8 ± 0.6 | 1.4567 ± 0.0006 | 1450.8 ± 3.1 | 36.7 ± 0.6 | 11.24 ± 0.2
313.15 K, x2 = 0.5721 | 998.9 ± 0.6 | 1.4576 ± 0.0006 | 1453.3 ± 3.1 | 37.2 ± 0.6 | 7.051 ± 0.1
313.15 K, x2 = 0.6754 | 1002.3 ± 0.5 | 1.4582 ± 0.0006 | 1460.3 ± 3 | 37.9 ± 0.6 | 4.495 ± 0.061
313.15 K, x2 = 0.7804 | 1004.8 ± 0.5 | 1.4594 ± 0.0006 | 1463.7 ± 3 | 38.5 ± 0.6 | 2.89 ± 0.036
313.15 K, x2 = 0.8882 | 1009.4 ± 0.5 | 1.4607 ± 0.0006 | 1474.9 ± 2.9 | 39.5 ± 0.6 | 1.943 ± 0.022
323.15 K, x2 = 0 | 984.1 ± 0.9 | 1.4512 ± 0.0008 | 1420.3 ± 3.4 | 34.5 ± 0.6 | 125.73 ± 3.3
323.15 K, x2 = 0.1049 | 984 ± 0.8 | 1.451 ± 0.0007 | 1414.2 ± 3.3 | 34.9 ± 0.6 | 61.14 ± 1.4
323.15 K, x2 = 0.1898 | 984.4 ± 0.7 | 1.4511 ± 0.0007 | 1411.8 ± 3.2 | 35.1 ± 0.6 | 35.41 ± 0.65
323.15 K, x2 = 0.2764 | 985.1 ± 0.7 | 1.452 ± 0.0007 | 1412.2 ± 3.2 | 35.1 ± 0.6 | 20.93 ± 0.41
323.15 K, x2 = 0.3733 | 986.4 ± 0.6 | 1.4524 ± 0.0006 | 1413 ± 3.1 | 35.3 ± 0.6 | 12.67 ± 0.23
323.15 K, x2 = 0.4695 | 988.2 ± 0.6 | 1.4528 ± 0.0006 | 1415.4 ± 3.1 | 36 ± 0.6 | 7.412 ± 0.11
323.15 K, x2 = 0.5721 | 990.6 ± 0.6 | 1.4535 ± 0.0006 | 1419.6 ± 3.1 | 36.5 ± 0.6 | 5.022 ± 0.069
323.15 K, x2 = 0.6754 | 993.5 ± 0.5 | 1.4541 ± 0.0006 | 1424.3 ± 3 | 37.1 ± 0.6 | 3.42 ± 0.043
323.15 K, x2 = 0.7804 | 996.8 ± 0.5 | 1.4553 ± 0.0006 | 1428.6 ± 3 | 37.7 ± 0.6 | 2.33 ± 0.027
323.15 K, x2 = 0.8882 | 1000.7 ± 0.5 | 1.4565 ± 0.0006 | 1438.7 ± 2.9 | 38.7 ± 0.6 | 1.631 ± 0.018
